The text below walks through data of patent US10899754B2, “Modulators of indoleamine 2,3-dioxygenase” (GLAXOSMITHKLINE INTELLECTUAL PROPERTY DEVELOPMENT LIMITED, priority 2016, dated 2021).

Series [1] has as its system human epithelial HeLa cells. In words: HeLa cytotoxicity assay (CellTiter-Glo). It counts as cell-based. The following applies: pCC50. The gist of the method:
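HeLa cells (5,000/well) stimulated with 10 nM IFN-γ, exposed to 11-point 3-fold compound dilutions for 2 days at 37 °C; viability by CellTiter-Glo ATP luminescence. Normalized to cell-free (100% cytotoxicity) and stimulated-cell DMSO (0%) controls; four-parameter fit gives pCC50.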
(In general: Cellular ATP, detected with luciferase, serves as a proxy for viable cell number.)

In series [2] the target is T1, ePL tagged IDO1 (Homo sapiens, UniProt P14902).
T1 construct: expressed in transfected cells; host or cells: HeLa cells transduced with BacMam virus
T1 sequence (P14902 whole entry): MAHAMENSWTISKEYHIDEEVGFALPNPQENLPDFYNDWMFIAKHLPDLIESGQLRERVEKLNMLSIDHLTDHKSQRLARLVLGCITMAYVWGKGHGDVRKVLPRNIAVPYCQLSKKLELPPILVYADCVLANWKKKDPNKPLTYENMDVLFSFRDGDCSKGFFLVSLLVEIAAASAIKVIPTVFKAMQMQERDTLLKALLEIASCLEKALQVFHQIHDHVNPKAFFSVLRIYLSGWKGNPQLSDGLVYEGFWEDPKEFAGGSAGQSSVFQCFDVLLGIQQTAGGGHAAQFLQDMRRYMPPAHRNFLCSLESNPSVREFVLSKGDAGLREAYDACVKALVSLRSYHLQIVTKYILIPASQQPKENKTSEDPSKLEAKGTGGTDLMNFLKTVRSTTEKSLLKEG
Kind of series: CETSA (Cellular Thermal Shifting assay) in Hela cells. It counts as binding. The following applies: BacMam ePL tagged IDO1, 3 hours at 37° C., heated at 53° C. for 3 min. On the procedure:
Cellular Thermal Shifting assays were used to directly monitor the ligand binding to target proteins in cells. Hela cells were transduced with BacMam virus expressing ePL tagged IDO1 overnight. The cells were then plated over the compounds for 3 hours at 37° C. in cell culture medium containing 1% FBS. The plates were then sealed and heated at 53° C. for 3 min. InCell Hunter reagents were added and luminescence was read in 90 min.

Series [3] deals with indoleamine 2, 3-dioxygenase (IDO1) (Homo sapiens, UniProt P14902). In words: IDO1 HeLa RapidFire MS assay (kynurenine detection by mass spectrometry). The following applies: HeLa cells, pIC50, read-out: IDO1_HELA_PXC50 (converted). It counts as cell-based. The arrangement: to induce the expression of indoleamine 2, 3-dioxygenase (IDO1). The gist of the method:
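Compound potency reported as pIC50 from kynurenine/internal-standard ratio (RapidFire MS) in supernatant of IFN-γ-induced (10 nM) HeLa cells, 5,000 per well, after 2 days' treatment with 11-point dilutions. Cytotoxicity in the same format by luminescent ATP detection, reported as pCC50.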

Molecules are shown by their SMILES. Where two headings read alike, the source gives them in different places.

indoleamine 2, 3-dioxygenase (IDO1), sequence (P14902 whole entry): as above

The compound `CC(C)CN(c1ccc([C@H](C)CC(=O)O)cc1Nc1nc(C(F)(F)F)ns1)C1CCOCC1` [Example 20, (R)-3-(4-(Isobutyl(tetrahydro-2H-pyran-4-yl)amino)-3-((3-(trifluoromethyl)-1,2,4-thiadiazol-5-yl)amino)phenyl)butanoic Acid] gave an HELA_IDO1_TOX_PXC50 in series [1] of under 5. In series [2] (read-out: pXC50_1 (converted)), the EC50 is 9.55 nM. In addition, the IC50 in series [3] was 2.51 nM.

In the case of `CC(C)CN(c1ccc([C@H](C)CC(=O)O)cc1Nc1nnc(C2CC2)s1)C1CCOCC1` [Example 23, (R)-3-(3-((5-cyclopropyl-1,3,4-thiadiazol-2-yl)amino)-4-(isobutyl (tetrahydro-2H-pyran-4-yl)amino)phenyl)butanoic Acid], the HELA_IDO1_TOX_PXC50 in series [1] is under 5. The EC50 is 331 nM in series [2] (read-out: pXC50_1 (converted)) and 234 nM in series [2] (read-out: pXC50_2 (converted)). In addition, in series [3], the IC50 is 3.98 nM.
